According to US11077052B1, “Selected multi-phase treatment for coronavirus respiratory infections” (priority 2020, dated 2021):

Tests used:
Assay type in all cases: in vivo, human
SARS-CoV-2 [1] = test: Inhalation of the smelling salt by patients during the COVID-19 pandemic; conditions: liquid CBD added
Experimental: In another formula, in addition to the herbal infused alcohols and concentrated herbal extracts, liquid CBD was also added. […] Apparently, CBD has synergistic effect with the probiotic produced volatile therapeutic compounds. Towards the end of preparation, the multiple strain probiotics along with their bio-active peptides and volatile therapeutic growth end products were add to the formula. The above prepared formulas were placed in a plastic or glass container with a tight closure or in a cartridge with screw type closure. Prior to inhalation, the cap is removed and, using one nostril at a time, it is inhaled deeply to reach the bottom of each and every alveoli of the lung. Conversely, the composition can also be applied using a standard nebulizer with proper liquefaction of the ingredients using a suitable solvent such as water.
The preparation was tried on patients of all age groups and genders ranging from 5 years to 75 years. They were asked to inhale once in the morning and once in the evening if they are at home or office. If they have to go to public places or a crowded place, they were asked to inhale before and after visiting the place. […]
In addition to the ingredients listed in Table 3, further testing evaluated the addition of a minimal amount of ammonium carbonate. In another composition, sodium hypochlorite has been replaced by a minimal quantity of liquid chloroform. […]

SARS-CoV-2 [2] = test: Oral probiotics liposome in test subjects and COVID-19 patients; conditions: acute cases of COVID-19
Excerpt: Recommended daily dosages for the above prepared liquid antioxidant liposome are one dose of 1 ounce or two doses of one-half ounce each. This preparation was given to several test subjects of all ages who were monitored for coronavirus infection over a period of 5.5 months during the coronavirus pandemic period (February through middle of August 2020). […] In addition, the above preparation was given to a patient who had been infected with COVID-19. This patient recovered quickly, within one to two weeks.
The liposome also was evaluated with variations of ingredients to identify which appeared to provide the better effectiveness. The standard for comparison had the liposome prepared with, herbal extracts, CBD, ascorbic acid, sodium bicarbonate, and sodium ascorbate. However, the probiotics were not included. A first test version had the liposome prepared with ascorbic acid and herbal extracts only, without sodium ascorbate, sodium bicarbonate, CBD, and probiotics. A second test version had the liposome prepared with concentrated herbal extracts of clove, turmeric, and basil in combination with ascorbic acid and sodium ascorbate along with multiple probiotics strain, but without inclusion of their all other immunomodulins and growth end products. […]

SARS-CoV-2 [3] = test: Nasal irrigation with the Example 1 composition in people during the COVID-19 pandemic, judged by symptoms; conditions: added to the Example 1 composition

Structure (SMILES): C=C(C)[C@@H]1CCC(C)=C[C@H]1c1c(O)cc(CCCCC)cc1O [CBD, Cannabidiol]
- effect of addition on efficacy of the inhaling smelling salt (SARS-CoV-2 [1]): significantly improved the efficacy
- effect of CBD in the liposome on recovery (SARS-CoV-2 [2]): significantly improved the recovery
- effect of inclusion in the nasal irrigation formulation (SARS-CoV-2 [3]): significantly improved the nasal clearance
